US8097626B2, “IL-8 receptor antagonists” (GlaxoSmithKline LLC, priority 2006, dated 2012)
Where two headings read alike, the source gives them in different places.

Tested on: GROα-induced expression of the integrin CD11b on neutrophils in human whole blood
Test: CD11b human whole blood assay
Assay type: cell-based
Details: Neutrophil, 10 nM GROα
Protocol: The compounds indicated were tested for their ability to inhibit the GROα-induced expression of the integrin CD11b on neutrophils in human whole blood.
Blood was drawn (9 ml) using a butterfly line and a 10 ml syringe containing 0.2 ml of working Sodium Heparin. The blood was kept at 37° C. until placed on ice in step 5 below. Compound stock solutions were then diluted to 12 times the maximum final concentration, 120 uM. Half Log serial dilutions were then performed in vehicle. Ten microliters of the compound dilutions or vehicle were then added to the appropriate 12×75 polypropylene tubes. One hundred microliters of whole blood was added per tube and incubated for 10 minutes, in a 37° C. water bath with initial (gentle) agitation and again at 5 minutes. The GROα stock was diluted 1:166.66 in 0.1% BSA-DPBS to “12×” concentration of 120 nM and 10 ul of the GROα dilution or 01% BSA-DPBS was added to the appropriate tubes so that the final GROα concentration equaled 10 nM. The tubes were incubated for 10 min at 37° C. with gentle hand agitation and again at 5 minutes. Samples were then placed on ice and 250 ul of ice cold CellFix working dilution was added followed by a one minute incubation on ice. 1.5 ml Eppendorf tubes were readied during GROα incubation by adding the appropriate antibodies. Every tube received 10 ul of CD11b-FITC and 5 ul of CD16-PE, except for the isotype control which received 10 ul of IgG2a-FITC instead of CD11b. Addition of 50 ul of the fixed blood from each tube was added to the appropriate Eppendorf tube. Samples were allowed to then incubate for 20 min at 4° C. in the dark. Addition of the blood/antibody mixtures to 500 ul of cold DPBS were added to the appropriately labeled 12×75 polystyrene tube. The resulting mixture was kept on ice. LDS stock (10 ul) was added and the mixture was incubated for 10 min at 4° C. before flow analysis. Samples were kept in a darkened environment. The LDS addition was staggered as the samples were collected on the flow cytometer so that all samples were run ˜10-20 minutes post-LDS addition.
Medium flow rate was used for flow collection and FL3 threshold increased to eliminate red blood cells from analysis using the LDS signal. The color compensation was properly set using unlabeled samples and one-color samples to subtract LDS spill into PE and the PE spill into FITC and FITC into PE. For the BD LSR cytometer, LDS=FL3, PE=FL2, FITC=FL1. A minimum of 2000-3000 events that satisfy the granulocyte gate by SSC vs. FSC and were CD16 positive by the FL2 signal were collected.

[1] = activity threshold, read-out: IC50, inhibition of GROα-induced CD11b expression on neutrophils
[2] = from about 3 uM to about 0.7 uM, read-out: IC50, inhibition of GROα-induced CD11b expression on neutrophils (span of the tested compounds)

| SMILES | IC50 [1] [nM] | IC50 [2] [nM] |
| --- | --- | --- |
| O=C(Nc1ccccc1Oc1ccccc1)Nc1ccc(Cl)c(S(=O)(=O)N2C[C@H]3CC[C@@H](C2)N3)c1O [Example 18, N-[4-chloro-3-(3,8-diazabicyclo[3.2.1]oct-3-ylsulfonyl)-2-hydroxyphenyl]-N′-[2-(phenyloxy)phenyl]urea] | < 5000 | 700 to 3000 |
| O=C1C[C@H]2CC[C@@H](C1)N2S(=O)(=O)c1c(Cl)ccc(NC(=O)Nc2cccc3c2OC(F)(F)O3)c1O [Example 26, N-(4-chloro-2-hydroxy-3-{[(1R,5S)-3-oxo-8-azabicyclo[3.2.1]oct-8-yl]sulfonyl}phenyl)-N′-(2,2-difluoro-1,3-benzodioxol-4-yl)urea] | < 5000 | 700 to 3000 |
| Cc1c(F)cccc1NC(=O)Nc1ccc(Cl)c(S(=O)(=O)N2C[C@H]3CC[C@@H](C2)N3)c1O [Example 17, N-[4-chloro-3-(3,8-diazabicyclo[3.2.1]oct-3-ylsulfonyl)-2-hydroxyphenyl]-N′-(3-fluoro-2-methylphenyl)urea] | < 5000 | 700 to 3000 |
| O=C(Nc1ccc(Cl)c(S(=O)(=O)N2C3CC[C@H]2CNC3)c1O)Nc1cccc(F)c1Cl (stereo in doubt) [Example 45, N-{4-chloro-3-[(1S,5S)-3,8-diazabicyclo[3.2.1]oct-8-ylsulfonyl]-2-hydroxyphenyl}-N′-(2-chloro-3-fluorophenyl)urea] | < 5000 | 700 to 3000 |

Results, then the molecule that gave them:

| IC50 [1] [nM] | IC50 [2] [nM] | SMILES |
| --- | --- | --- |
| < 5000 | 700 to 3000 | O=C(Nc1ccc(Cl)c(S(=O)(=O)N2C[C@@H]3C[C@H]2CN3CC2CC2)c1O)Nc1cccc(F)c1Cl [Example 2, N-(4-chloro-3-{[(1S,4S)-5-(cyclopropylmethyl)-2,5-diazabicyclo[2.2.1]hept-2-yl]sulfonyl}-2-hydroxyphenyl)-N′-(2-chloro-3-fluorophenyl)urea] |
| < 5000 | 700 to 3000 | O=C(Nc1ccc(Cl)c(S(=O)(=O)N2CC3CC2CN3)c1O)Nc1cccc(F)c1Cl (racemic) [Example 23, (+/−)-N-[4-chloro-3-(2,5-diazabicyclo[2.2.1]hept-2-ylsulfonyl)-2-hydroxyphenyl]-N′-(2-chloro-3-fluorophenyl)urea] |
| < 5000 | 700 to 3000 | CCc1ccccc1NC(=O)Nc1ccc(Cl)c(S(=O)(=O)N2C[C@H]3C[C@@H]2CN3)c1O (stereo in doubt) [Example 12, N-{4-chloro-3-[(1R,4R)-2,5-diazabicyclo[2.2.1]hept-2-ylsulfonyl]-2-hydroxyphenyl}-N′-(2-ethylphenyl)urea] |
| < 5000 | 700 to 3000 | O=C(Nc1cccnc1Cl)Nc1ccc(Cl)c(S(=O)(=O)N2CCn3ccnc3C2)c1O [Example 3, N-[4-chloro-3-(5,6-dihydroimidazo[1,2-a]pyrazin-7(8H)-ylsulfonyl)-2-hydroxyphenyl]-N′-(2-chloro-3-pyridinyl)urea] |
| < 5000 | 700 to 3000 | O=C(Nc1ccc(Cl)c(S(=O)(=O)N2C[C@@H]3C[C@H]2CN3)c1O)Nc1cccc(F)c1Cl [Example 1, N-[4-chloro-3-[(1S,4S)-2,5-diazabicyclo[2.2.1]hept-2-ylsulfonyl]-2-hydroxyphenyl]-N′-(2-chloro-3-fluorophenyl)urea] |
